Test results taken from US20260042762A1 (Kymera Therapeutics, Inc., priority 2018, published 2026).
Structures can show the parent of a compound that is named as a salt.

target: T1, MerTK (Homo sapiens, UniProt Q12866); experiment: MerTk degradation in Jurkat cells (Western blot); format: cell-based; settings: Jurkat, 4 h, 0.001-1 μM, 4 hour-incubation at 37° C., read-out: Jurkat Max % MerTK Degradation
T1 construct: endogenous in cells; host or cells: Jurkat cells
T1 sequence (Q12866 21-999): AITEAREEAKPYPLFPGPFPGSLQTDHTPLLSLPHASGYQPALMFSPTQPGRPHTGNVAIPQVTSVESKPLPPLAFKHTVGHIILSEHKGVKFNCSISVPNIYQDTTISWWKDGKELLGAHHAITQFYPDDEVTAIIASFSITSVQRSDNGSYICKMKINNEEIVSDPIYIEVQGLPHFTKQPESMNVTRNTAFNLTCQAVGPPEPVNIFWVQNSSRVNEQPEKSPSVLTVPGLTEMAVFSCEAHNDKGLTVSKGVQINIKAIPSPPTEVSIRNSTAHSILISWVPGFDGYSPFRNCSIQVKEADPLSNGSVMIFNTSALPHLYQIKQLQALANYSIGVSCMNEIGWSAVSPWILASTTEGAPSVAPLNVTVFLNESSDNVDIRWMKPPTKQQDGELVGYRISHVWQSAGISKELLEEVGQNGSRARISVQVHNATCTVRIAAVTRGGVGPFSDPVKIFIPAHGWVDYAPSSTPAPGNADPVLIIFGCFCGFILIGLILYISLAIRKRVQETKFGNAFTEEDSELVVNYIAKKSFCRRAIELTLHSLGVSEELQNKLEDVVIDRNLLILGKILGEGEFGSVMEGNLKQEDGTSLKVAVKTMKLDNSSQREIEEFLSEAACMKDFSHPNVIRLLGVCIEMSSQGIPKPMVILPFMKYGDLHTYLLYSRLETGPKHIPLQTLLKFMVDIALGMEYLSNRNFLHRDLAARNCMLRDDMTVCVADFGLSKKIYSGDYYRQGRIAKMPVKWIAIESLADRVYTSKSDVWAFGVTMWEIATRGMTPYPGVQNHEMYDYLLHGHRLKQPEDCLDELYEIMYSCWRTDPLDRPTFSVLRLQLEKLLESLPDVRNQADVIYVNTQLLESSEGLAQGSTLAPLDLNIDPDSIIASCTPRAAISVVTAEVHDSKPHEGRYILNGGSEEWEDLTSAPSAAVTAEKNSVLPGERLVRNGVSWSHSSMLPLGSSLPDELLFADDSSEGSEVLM
In short: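 Jurkat cells treated 4 h at 37 °C with compound at 0.001-1 μM final. RIPA lysates quantified by BCA, then MerTK probed by Western blot against actin loading control with IR-dye secondaries and Odyssey imaging.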

| Compound | Dmax |
| --- | --- |
| Cn1c(=O)n([C@H]2CCC(=O)NC2=O)c2ccc(CCCOCCCOCCN3CCN(Cc4ccc(-c5cn([C@H]6CC[C@H](O)CC6)c6nc(NCCC7CC7)ncc56)cc4)CC3)cc21 [I-70, 3-(5-[3-[3-(2-[4-[(4-[2-[(2-cyclopropylethyl)amino]-7-[trans-4-hydroxycyclohexyl]-7H-pyrrolo[2,3-d]pyrimidin-5-yl]phenyl)methyl]piperazin-1-yl]ethoxy)propoxy]propy1]-3-methyl-2-oxo-2,3-dihydro-1H-1,3-benzodiazol-1-y1)piperidine-2,6-dione] | > 50% |
| CCCNc1ncc2c(-c3ccc(CN4CCN(CCOCCCOCCCc5ccc6c(c5)n(C)c(=O)n6[C@H]5CCC(=O)NC5=O)CC4)cc3)cn([C@H]3CC[C@H](O)CC3)c2n1 [I-71, 3-[3-methyl-2-oxo-5-[3-(3-[2-[4-([4-[2-(propylamino)-7-[trans-4-hydroxycyclohexyl]-7H-pyrrolo[2,3-d]pyrimidin-5-yl]phenyl]methyl)piperazin-1-yl]ethoxy]propoxy)propy1]-2,3-dihydro-1H-1,3-benzodiazol-1-yl]piperidine-2,6-dione] | > 50% |
| Cn1c(=O)n([C@H]2CCC(=O)NC2=O)c2ccc(CCCOCCCN3CCN(Cc4ccc(-c5cn([C@H]6CC[C@H](O)CC6)c6nc(NCCC(F)(F)F)ncc56)cc4)CC3)cc21 [I-73, 3-[3-methyl-2-oxo-5-[3-(3-[4-[(4-[7-[trans-4-hydroxycyclohexyl]-2-[(3,3,3-trifluoropropyl)amino]-7H-pyrrolo[2,3-d]pyrimidin-5-yl]phenyl)methyl]piperazin-1-yl]propoxy)propyl]-2,3-dihydro-1H-1,3-benzodiazol-1-yl]piperidine-2,6-dione; formic acid] | > 50% |
| CCCCNc1ncc2c(-c3ccc(CN4CCN(CCCOCCCc5ccc6c(c5)n(C)c(=O)n6[C@H]5CCC(=O)NC5=O)CC4)cc3)cn(C3CCCCC3)c2n1 [I-74, 3-[5-(3-[3-[4-([4-[2-(butylamino)-7-cyclohexyl-7H-pyrrolo[2,3-d]pyrimidin-5-yl]phenyl]methyl)piperazin-1-yl]propoxy]propyl)-3-methyl-2-oxo-2,3-dihydro-1H-1,3-benzodiazol-1-yl]piperidine-2,6-dione] | > 50% |
| CCCCNc1ncc2c(-c3ccc(C(C)N4CCN(CCCOCCCc5ccc6c(c5)n(C)c(=O)n6C5CCC(=O)NC5=O)CC4)cc3)cn([C@H]3CC[C@H](O)CC3)c2n1 (stereo partly drawn) [I-75, 3-[5-(3-[3-[4-(1-[4-[2-(butylamino)-7-[trans-4-hydroxycyclohexy1]-7H-pyrrolo[2,3-d]pyrimidin-5-yl]phenyl]ethyl)piperazin-1-yl]propoxy]propyl)-3-methyl-2-oxo-2,3-dihydro-1H-1,3-benzodiazol-1-yl]piperidine-2,6-dione; formic acid] | > 50% |
| Cn1c(=O)n([C@H]2CCC(=O)NC2=O)c2ccc(CCCOCCCOCCN3CCN(Cc4ccc(-c5cn([C@H]6CC[C@H](O)CC6)c6nc(NCCC(F)(F)F)ncc56)cc4)CC3)cc21 [I-78, 3-(3-methyl-2-oxo-5-[3-[3-(2-[4-[(4-[7-[trans-4-hydroxycyclohexyl]-2-[(3,3,3-trifluoropropyl)amino]-7H-pyrrolo[2,3-d]pyrimidin-5-yl]phenyl)methyl]piperazin-1-yl]ethoxy)propoxy]propy1]-2,3-dihydro-1H-1,3-benzodiazol-1-yl)piperidine-2,6-dione; formic acid] | > 50% |
| Cn1c(=O)n([C@H]2CCC(=O)NC2=O)c2ccc(CCCOCCCCN3CCN(Cc4ccc(-c5cn([C@H]6CC[C@H](O)CC6)c6nc(NCCC(F)(F)F)ncc56)cc4)CC3)cc21 [I-79, 3-[3-methyl-2-oxo-5-[3-(4-[4-[(4-[7-[trans-4-hydroxycyclohexyl]-2-[(3,3,3-trifluoropropyl)amino]-7H-pyrrolo[2,3-d]pyrimidin-5-yl]phenyl)methyl]piperazin-1-yl]butoxy)propyl]-2,3-dihydro-1H-1,3-benzodiazol-1-yl]piperidine-2,6-dione; formic acid] | > 50% |
| CC(c1ccc(-c2cn([C@H]3CC[C@H](O)CC3)c3nc(NCCC(F)(F)F)ncc23)cc1)N1CCN(CCCOCCCc2ccc3c(c2)n(C)c(=O)n3C2CCC(=O)NC2=O)CC1 (stereo partly drawn) [I-80, 3-[3-methyl-2-oxo-5-[3-(3-[4-[1-(4-[7-[trans-4-hydroxycyclohexyl]-2-[(3,3,3-trifluoropropyl)amino]-7H-pyrrolo[2,3-d]pyrimidin-5-yl]phenyl)ethyl]piperazin-1-yl]propoxy)propyl]-2,3-dihydro-1H-1,3-benzodiazol-1-yl]piperidine-2,6-dione] | > 50% |
| CC(c1ccc(-c2cn([C@H]3CC[C@H](O)CC3)c3nc(NCCC(F)(F)F)ncc23)cc1)N1CCN(CCCCOCCCc2ccc3c(c2)n(C)c(=O)n3C2CCC(=O)NC2=O)CC1 (stereo partly drawn) [I-81, 3-[3-methyl-2-oxo-5-[3-(4-[4-[1-(4-[7-[trans-4-hydroxycyclohexyl]-2-[(3,3,3-trifluoropropyl)amino]-7H-pyrrolo[2,3-d]pyrimidin-5-yl]phenyl)ethyl]piperazin-1-y1]butoxy)propyl]-2,3-dihydro-1H-1,3-benzodiazol-1-yl]piperidine-2,6-dione] | > 50% |
| Cn1c(=O)n([C@H]2CCC(=O)NC2=O)c2ccc(C#CCOCCOCCN3CCN(Cc4ccc(-c5cn([C@H]6CC[C@H](O)CC6)c6nc(NCCC(F)(F)F)ncc56)cc4)CC3)cc21 [I-82, 3-(3-methyl-2-oxo-5-[3-[2-(2-[4-[(4-[7-[trans-4-hydroxycyclohexy1]-2-[(3,3,3-trifluoropropyl)amino]-7H-pyrrolo[2,3-d]pyrimidin-5-yl]phenyl)methyl]piperazin-1-yl]ethoxy)ethoxy]prop-1-yn-1-yl]-2,3-dihydro-1H-1,3-benzodiazol-1-yl)piperidine-2,6-dione] | > 50% |

The remaining lines, values ahead:

| Dmax | Compound |
| --- | --- |
| < 20% | Cc1ncsc1-c1ccc(CNC(=O)[C@@H]2C[C@@H](O)CN2C(=O)[C@@H](NCCNCCCCCN2CCN(Cc3ccc(-c4cn([C@H]5CC[C@H](O)CC5)c5nc(NCCC(F)(F)F)ncc45)cc3)CC2)C(C)(C)C)cc1 [I-68, (2S,4R)-1-[(2S)-3,3-dimethyl-2-([2-[(5-[4-[(4-[7-[trans-4-hydroxycyclohexyl]-2-[(3,3,3-trifluoropropyl)amino]-7H-pyrrolo[2,3-d]pyrimidin-5yl]phenyl)methyl]piperazin-1-yl]pentyl)amino]ethyl]amino)butanoyl]-4-hydroxy-N-[[4-(4-methyl-1,3-thiazol-5-yl)phenyl]methyl]pyrrolidine-2-carboxamide dihydrochloride] |
| > 50% | CCCCNc1ncc2c(-c3ccc(CN4CCN(CCCOCCCc5ccc6c(c5)n(C)c(=O)n6[C@H]5CCC(=O)NC5=O)CC4)cc3)cn([C@H]3CC[C@H](O)CC3)c2n1 [I-69, 3-[5-(3-[3-[4-([4-[2-(butylamino)-7-[trans-4-hydroxycyclohexy1]-7H-pyrrolo[2,3-d]pyrimidin-5-yl]phenyl]methyl)piperazin-1-yl]propoxy]propyl)-3-methyl-2-oxo-2,3-dihydro-1H-1,3-benzodiazol-1-yl]piperidine-2,6-dione; bis(formic acid)] |
| > 50% | Cn1c(=O)n([C@H]2CCC(=O)NC2=O)c2ccc(CCCOCCCOCCN3CCN(Cc4ccc(-c5cn([C@H]6CC[C@H](O)CC6)c6nc(NCC7CC7)ncc56)cc4)CC3)cc21 [I-72, 3-(5-[3-[3-(2-[4-[(4-[2-[(cyclopropylmethyl)amino]-7-[trans-4-hydroxycyclohexy1]-7H-pyrrolo[2,3-d]pyrimidin-5-yl]phenyl)methyl]piperazin-1-yl]ethoxy)propoxy]propy1]-3-methyl-2-oxo-2,3-dihydro-1H-1,3-benzodiazol-1-yl)piperidine-2,6-dione; formic acid] |
| > 50% | CCCCNc1ncc2c(-c3ccc(CN4CCN(CCOCCOCCOCCOCCCc5ccc6c(c5)n(C)c(=O)n6[C@H]5CCC(=O)NC5=O)CC4)nn3)cn([C@H]3CC[C@H](O)CC3)c2n1 [I-76, 3-(5-[1-[4-([6-[2-(butylamino)-7-[trans-4-hydroxycyclohexyl]-7H-pyrrolo[2,3-d]pyrimidin-5-y1]pyridazin-3-y1]methyl)piperazin-1-y1]-3,6,9,12-tetraoxapentadecan-15-y1]-3-methyl-2-oxo-2,3-dihydro-1H-1,3-benzodiazol-1-y1)piperidine-2,6-dione; formic acid] |
| > 50% | Cn1c(=O)n([C@H]2CCC(=O)NC2=O)c2ccc(CCCOCCCN3CCN(Cc4ccc(-c5cn(C6CCCCC6)c6nc(NCCC(F)(F)F)ncc56)cc4)CC3)cc21 [I-83, 3-[5-[3-(3-[4-[(4-[7-cyclohexyl-2-[(3,3,3-trifluoropropyl)amino]-7H-pyrrolo[2,3-d]pyrimidin-5-yl]phenyl)methyl]piperazin-1-yl]propoxy)propyl]-3-methyl-2-oxo-2,3-dihydro-1H-1,3-benzodiazol-1-yl]piperidine-2,6-dione;] |
